Data on one substance can be found in US20190185829A1, “Preparation of lipase with improved ester synthesis activity by using surfactants” (Jiangnan University, priority 2017, published 2019).

What all share (type): biochemical
Test [1] concerns Rhizopus chinensis lipase r27RCL. Description: Ester synthesis activity of surfactant-treated lyophilized lipase r27RCL by GC analysis. Conditions: surfactant 10 mM, protein 0.2 mg·mL^−1. The method, then: (§1) (2) Determination of Ester Synthesis Activity of the Lipase by GC Analysis
(§2) Substrate solution A: 48.5 mL of n-octanoic acid is dissolved in 250 mL of n-heptane in a volumetric flask.
(§3) Substrate solution B: 17.5 mL of absolute ethanol is dissolved in 250 mL of n-heptane in a volumetric flask.
(§4) Internal standard: 2-hexanol/n-heptane (35 g·L^−1).
(§5) Standard sample: 10 g of n-octanoate is dissolved in 1000 mL of n-heptane in a volumetric flask.
(§6) 1 mL substrate solution A and substrate solution B are added in a 5 mL Eppendorf tube respectively, then 20 mg lipase powder (or lyophilized powder) is added. The reaction is carried out at 40° C. and with shaking at 150 rpm for 30 min. Remove the lipase powder by centrifugation or membrane filtration. Then 0.1 mL of internal standard is added in 0.4 mL of filtrate or supernatant and mixed. Measure the content of n-octanoate in the mixture above by GC analysis.
(§7) The gas chromatograph (6820, Agilent Instruments) is equipped with a AC20 (PEG20000) capillary column and a FID detector. Nitrogen was used as the carrier gas. The oven temperature was programmed to start at 90° C. for 1 min and then be elevated to 200° C. for 5 min at 10° C.·min^−1. The injector and detector temperatures were set at 250° C.
(§8) Definition of enzyme activity: One unit of ester synthesis activity is defined as the amount of enzyme that esterifies 1 micromole of n-octanoate per min.
(§9) Specific activity: the activity of lipase per milligram of total protein in the lipase preparation.
(§10) Total recovery: the percentage of the activity after a treatment to that before the treatment
(§11) Add an equal volume of high-concentration surfactant solution into the enzyme solution. The final protein concentration was […] and the surfactant concentration was 10 mM. After mixed thoroughly, the mixture was lyophilized and kept in dry condition.
(§12) Commercial lipase r27RCL was purchased from Jiangsu Yiming Biological Technology Co., Ltd, which has high hydrolytic activity and low ester synthesis activity. Dissolve the r27RCL powder in water and centrifuge to obtain the supernatant containing the r27RCL lipase to adjust the ester synthesis activity (the final protein concentration was 0.2 mg·mL^−1 and the final concentration of surfactant was 10 mM, which is between 0.1×CMC^˜200×CMC of the different surfactants in Table 1).
(§13) Commercial lipase r27RCL was purchased from Jiangsu Yiming Biological Technology Co., Ltd. r27RCL is a lipase with high hydrolytic activity but low ester synthesis activity. Dissolve the r27RCL powder in water, centrifuge to obtain the supernatant and treat the supernatant with different concentrations of surfactant LPC14 (the final protein concentration was 0.2 mg·mL^−1).

Test [2] has the same test system. Description: Hydrolytic activity of surfactant-treated lipase r27RCL using pNPP as substrate. Conditions: surfactant 10 mM, protein 0.2 mg·mL^−1.
Source text: (§14) (1) Determination of Hydrolytic Activity of the Lipase Using p-Nitrophenyl Palmitate (pNPP) as Substrate
(§15) Hydrolysis of pNPP catalyzed by lipase generates p-nitrophenol and palmitic acid. p-nitrophenol appears yellow in the buffer at pH 8.0 with the maximum absorption peak at 410 nm. Determination of hydrolytic activity can be achieved by measuring the absorbance at 410 nm.
(§16) The substrate solution A: 50 mmol·L^−1 sodium phosphate buffer (pH 8.0) containing 1.16 g·L^−1 sodium deoxycholate and 0.56 g·L^−1 arabic gum. Substrate solution B: 0.015 g pNPP is dissolved in 5 mL isopropyl alcohol. Substrate solution A and substrate solution B are mixed then stored for use afterwards.
(§17) Termination solution: 40 g·L^−1 NaOH, 93.05 g·L^−1 EDTA sodium. Add 62 uL termination solution to the reaction mixture when stopping the reaction.
(§18) Add 0.1 mL appropriately diluted enzyme solution, which is substituted by inactivated enzyme solution as the control, to 2.4 mL substrate solution above, incubate the mixture at 40° C. for 2 min and measure the absorbance at 410 nm.
(§19) one hydrolytic activity unit is defined as the amount of enzyme that catalyzes the formation of 1 μmol of p-nitrophenol in 1 minute at 40° C.
(§20) enzyme activity (U·mL^−1)=(V×A410×10^6)/(ε×t×V′) Calculation equation: […]
(§21) Specific activity: the activity of lipase per milligram of total protein in the lipase preparation. […]
as §12, §13

Test [3] concerns the target T1, Rhizoupus oryzae lipase ROL (Rhizopus oryzae, UniProt P61872).
T1 construct: purchased Sigma-Aldrich Co., Ltd
Description: Ester synthesis activity of surfactant-treated lyophilized lipase ROL by GC analysis. Conditions: surfactant 10 mM, protein 0.2 mg·mL^−1. The method, then:
as §1, §2, §3, §4, §5, §6, §7, §8, §9, §10, §11
(§22) Commercial lipase ROL was purchased from Sigma-Aldrich Co., Ltd. ROL is a non-immobilized lipase. Dissolve the ROL powder in water and centrifuge to obtain the supernatant containing the ROL lipase that would be regulated to improve its ester synthesis activity by adjusting the final protein concentration to 0.2 mg·mL^−1 and adding surfactants to the final concentration of 10 mM.
(§23) Commercial lipase ROL was purchased from Sigma-Aldrich Co., Ltd. and is a non-immobilized lipase. Dissolve the ROL powder in water, centrifuge to obtain the supernatant and treat the supernatant with different concentrations of surfactant LPC14 (the final protein concentration was 0.2 mg·mL^−1).

For test [4], the target named is T1, Rhizoupus oryzae lipase ROL. Description: Hydrolytic activity of surfactant-treated lipase ROL using pNPP as substrate. Conditions: surfactant 10 mM, protein 0.2 mg·mL^−1.
Source text: as §14, §15, §16, §17, §18, §19, §20, §21, §22, §23

Test [5] addresses T2, Pseudomonas cepacia lipase PCL (Burkholderia cepacia, UniProt P22088).
T2 construct: purchased Sigma-Aldrich Co., Ltd
Description: Ester synthesis activity of surfactant-treated lyophilized lipase PCL by GC analysis. Conditions: surfactant 10 mM, protein 0.2 mg·mL^−1. The method, then:
as §1, §2, §3, §4, §5, §6, §7, §8, §9, §10, §11
(§24) Commercial lipase PCL was purchased from Sigma-Aldrich Co., Ltd. PCL is a non-immobilized lipase. Dissolve the PCL powder in water and centrifuge to obtain the supernatant containing the PCL lipase that would be regulated to improve the ester synthesis activity by adjusting the final protein concentration to 0.2 mg·mL^−1 and adding surfactants to the final concentration of 10 mM.
(§25) Commercial lipase PCL was purchased from Sigma-Aldrich Co., Ltd. and is a non-immobilized lipase. Dissolve the PCL powder in water, centrifuge to obtain the supernatant and treat the supernatant with different concentrations of surfactant DDM (the final protein concentration was 0.2 mg·mL^−1).

Test [6] has as its target T2, Pseudomonas cepacia lipase PCL. The test can be described thus: Hydrolytic activity of surfactant-treated lipase PCL using pNPP as substrate. Conditions: surfactant 10 mM, protein 0.2 mg·mL^−1.
Source text: as §14, §15, §16, §17, §18, §19, §20, §21, §24, §25

Test [7] addresses T3, Candida antarctica lipase CALB (Moesziomyces antarcticus, UniProt P41365).
T3 construct: purchased Sigma-Aldrich Co., Ltd
Description: Ester synthesis activity of surfactant-treated lyophilized lipase CALB by GC analysis. Conditions: surfactant 10 mM, protein 0.12 mg·mL^−1. The procedure:
as §1, §2, §3, §4, §5, §6, §7, §8, §9, §10, §11
(§26) Commercial lipase CALB was purchased from Sigma-Aldrich Co., Ltd. CALB is a non-immobilized lipase. Dissolve the CALB powder in water and centrifuge to obtain the supernatant containing the CALB lipase that would be regulated to improve the ester synthesis activity by adjusting the final protein concentration to 0.12 mg·mL^−1 and adding surfactants to the final concentration of 10 mM.
(§27) Commercial lipase CALB was purchased from Sigma-Aldrich Co., Ltd. and is a non-immobilized lipase. Dissolve the CALB powder in water, centrifuge to obtain the supernatant and treat the supernatant with different concentrations of surfactant DDM (the final protein concentration was 0.12 mg·mL^−1).

Test [8] deals with T3, Candida antarctica lipase CALB. The test can be described thus: Hydrolytic activity of surfactant-treated lipase CALB using pNPP as substrate. As to conditions: surfactant 10 mM, protein 0.12 mg·mL^−1.
Source text: as §14, §15, §16, §17, §18, §19, §20, §21, §26, §27

T1 sequence (P61872 96-392): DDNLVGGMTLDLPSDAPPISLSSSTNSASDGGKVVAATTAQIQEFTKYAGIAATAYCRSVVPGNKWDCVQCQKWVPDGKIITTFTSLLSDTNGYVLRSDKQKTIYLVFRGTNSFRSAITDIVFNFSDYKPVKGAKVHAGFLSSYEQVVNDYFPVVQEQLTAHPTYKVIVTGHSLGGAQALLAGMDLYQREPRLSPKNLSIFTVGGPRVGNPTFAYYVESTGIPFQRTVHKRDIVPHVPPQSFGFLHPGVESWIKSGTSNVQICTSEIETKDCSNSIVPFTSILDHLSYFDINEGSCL
T2 sequence (P22088 45-364): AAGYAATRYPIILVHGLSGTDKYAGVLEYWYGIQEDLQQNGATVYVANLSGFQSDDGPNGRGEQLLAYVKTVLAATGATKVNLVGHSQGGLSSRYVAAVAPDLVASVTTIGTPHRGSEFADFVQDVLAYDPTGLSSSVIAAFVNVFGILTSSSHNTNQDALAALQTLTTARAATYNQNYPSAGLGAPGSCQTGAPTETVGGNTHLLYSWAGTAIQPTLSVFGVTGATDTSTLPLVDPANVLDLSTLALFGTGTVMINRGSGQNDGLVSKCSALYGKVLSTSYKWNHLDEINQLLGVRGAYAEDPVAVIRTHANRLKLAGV
T3 sequence (P41365 26-342): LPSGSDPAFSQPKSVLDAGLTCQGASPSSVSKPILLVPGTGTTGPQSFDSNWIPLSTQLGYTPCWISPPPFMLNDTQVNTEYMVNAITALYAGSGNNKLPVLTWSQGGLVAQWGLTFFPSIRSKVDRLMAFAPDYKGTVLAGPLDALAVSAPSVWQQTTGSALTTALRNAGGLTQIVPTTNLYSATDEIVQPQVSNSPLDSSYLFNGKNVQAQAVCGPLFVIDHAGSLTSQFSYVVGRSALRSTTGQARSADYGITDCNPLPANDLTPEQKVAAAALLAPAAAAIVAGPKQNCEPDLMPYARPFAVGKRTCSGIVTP

As for “polyethylene glycol octylphenyl Ether [Triton X-100]”, the “Ester synthesis activity, Specific activity” value was found to be 12.9 U · mg^−1 in test [1], 1.7 U · mg^−1 in test [3], 6.3 U · mg^−1 in test [5] and 77.4 U · mg^−1 in test [7]. Further, the “Ester synthesis activity, Total recovery” value in test [1] stood at 192%; in test [3], 200%; in test [5], 174%. Further, the “Hydrolytic activity, Specific activity” value is listed as 116.6 U · mg^−1 in test [2], 34.9 U · mg^−1 in test [4], 364.5 U · mg^−1 in test [6] and 0 U · mg^−1 in test [8]. Moreover, the “Hydrolytic activity, Total recovery” value is on record as 93% in test [2], 99% in test [4], 131% in test [6] and 0% in test [8].
